Where two headings read alike, the source gives them in different places. Each block holds one compound with its values, some of them ahead of it.
Key:
Format in all cases: biochemical
CDK2/CCNE1 = CDK2/CCNE1 (Homo sapiens, UniProt P24941); assay: CDK2 homogeneous time-resolved fluorescence (HTRF) kinase assay; conditions: CDK2/CCNE
In short: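 Compounds were titrated 11-point, half-log from typically 10 μM against 3 nM CDK2/cyclin E1 at 1 mM ATP, with a 20 min enzyme preincubation. Phosphorylation of 50 nM ULight-4E-BP1 peptide over 60 min at 23 °C was detected by europium anti-phospho antibody TR-FRET.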

CDK1/CCNB1 = CDK1/CCNB1 (Homo sapiens, UniProt P06493); assay: CDK1 homogeneous time-resolved fluorescence (HTRF) kinase assay; conditions: CDK1/CCNB
Sequence of CDK1/CCNB1 (P06493 whole entry): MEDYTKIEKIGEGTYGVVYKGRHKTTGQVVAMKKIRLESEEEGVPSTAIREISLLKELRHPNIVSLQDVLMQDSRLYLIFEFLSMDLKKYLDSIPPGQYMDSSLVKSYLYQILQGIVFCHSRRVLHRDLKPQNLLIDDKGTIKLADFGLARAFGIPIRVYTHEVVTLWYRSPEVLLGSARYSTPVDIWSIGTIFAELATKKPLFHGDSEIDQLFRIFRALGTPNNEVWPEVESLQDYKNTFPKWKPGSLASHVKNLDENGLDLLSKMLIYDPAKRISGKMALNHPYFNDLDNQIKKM
Sequence of CDK1/CCNB1 (P14635 whole entry partner): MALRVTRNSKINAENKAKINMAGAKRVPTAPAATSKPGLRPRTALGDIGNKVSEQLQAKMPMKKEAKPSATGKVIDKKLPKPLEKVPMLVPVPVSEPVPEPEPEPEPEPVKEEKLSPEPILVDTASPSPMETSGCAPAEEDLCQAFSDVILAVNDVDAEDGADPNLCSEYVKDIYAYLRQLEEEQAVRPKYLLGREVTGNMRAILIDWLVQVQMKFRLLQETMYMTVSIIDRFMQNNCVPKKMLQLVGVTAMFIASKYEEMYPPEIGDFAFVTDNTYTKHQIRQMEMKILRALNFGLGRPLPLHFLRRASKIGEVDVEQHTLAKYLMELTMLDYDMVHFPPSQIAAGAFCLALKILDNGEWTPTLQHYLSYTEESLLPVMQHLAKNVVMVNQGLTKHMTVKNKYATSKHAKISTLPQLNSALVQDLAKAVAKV
In short: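 CDK1/CCNB1 0.5 nM + cpd, 20 min 23 °C; add 1 mM ATP, 50 nM ULight-4E-BP1 peptide, 60 min 23 °C; stop 10 mM EDTA; 2 nM Eu-Ab, 60 min; HTRF 665 nm. 11-pt half-log, top 10 μM typical; IC50.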

CDK4/CCND3 = CDK4/CCND3 (Homo sapiens, UniProt P11802); assay: CDK4 homogeneous time-resolved fluorescence (HTRF) kinase assay; conditions: CDK4/CCND
Sequence of CDK4/CCND3 (P11802 whole entry): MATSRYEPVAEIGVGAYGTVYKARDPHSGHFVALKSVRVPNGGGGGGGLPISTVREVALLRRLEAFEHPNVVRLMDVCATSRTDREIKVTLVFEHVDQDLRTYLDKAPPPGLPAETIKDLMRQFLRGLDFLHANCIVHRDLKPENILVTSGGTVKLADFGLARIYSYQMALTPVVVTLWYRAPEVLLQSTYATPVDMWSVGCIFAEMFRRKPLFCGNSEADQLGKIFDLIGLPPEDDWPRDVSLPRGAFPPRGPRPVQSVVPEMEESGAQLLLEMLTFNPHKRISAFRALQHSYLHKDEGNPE
Sequence of CDK4/CCND3 (P30281 whole entry partner): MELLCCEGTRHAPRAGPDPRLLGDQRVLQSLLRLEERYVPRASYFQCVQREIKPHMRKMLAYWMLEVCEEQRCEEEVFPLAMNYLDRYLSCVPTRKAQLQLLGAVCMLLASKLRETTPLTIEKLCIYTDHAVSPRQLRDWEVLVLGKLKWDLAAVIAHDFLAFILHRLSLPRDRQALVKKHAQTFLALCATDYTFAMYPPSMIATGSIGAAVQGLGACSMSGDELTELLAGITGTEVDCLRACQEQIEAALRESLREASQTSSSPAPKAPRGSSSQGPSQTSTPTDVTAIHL
In short: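 Compounds were preincubated with 1.5 nM CDK4/CCND3 for 20 min at 23 °C in HEPES buffer (pH not given), then reacted 60 min with 1 mM ATP and 50 nM ULight-4E-BP1 (Thr37/46) peptide. EDTA stop, Eu-anti-phospho-4E-BP1 detection; 665/615 nm ratio; IC50 from 11-point half-log titrations from 10 μM.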

CDK6/CCND1 = CDK6/CCND1 (Homo sapiens, UniProt Q00534); assay: CDK6 homogeneous time-resolved fluorescence (HTRF) kinase assay; conditions: CDK6/CCND
Sequence of CDK6/CCND1 (Q00534 whole entry): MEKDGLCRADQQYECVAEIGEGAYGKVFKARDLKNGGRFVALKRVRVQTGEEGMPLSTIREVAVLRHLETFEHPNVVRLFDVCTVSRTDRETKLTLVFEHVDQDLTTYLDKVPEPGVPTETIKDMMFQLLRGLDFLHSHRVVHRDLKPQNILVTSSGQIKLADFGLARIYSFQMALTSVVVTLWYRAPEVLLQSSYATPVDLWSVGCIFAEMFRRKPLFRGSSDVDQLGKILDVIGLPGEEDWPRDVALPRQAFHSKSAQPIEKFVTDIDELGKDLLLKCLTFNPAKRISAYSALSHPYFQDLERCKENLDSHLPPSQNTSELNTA
Sequence of CDK6/CCND1 (P24385 whole entry partner): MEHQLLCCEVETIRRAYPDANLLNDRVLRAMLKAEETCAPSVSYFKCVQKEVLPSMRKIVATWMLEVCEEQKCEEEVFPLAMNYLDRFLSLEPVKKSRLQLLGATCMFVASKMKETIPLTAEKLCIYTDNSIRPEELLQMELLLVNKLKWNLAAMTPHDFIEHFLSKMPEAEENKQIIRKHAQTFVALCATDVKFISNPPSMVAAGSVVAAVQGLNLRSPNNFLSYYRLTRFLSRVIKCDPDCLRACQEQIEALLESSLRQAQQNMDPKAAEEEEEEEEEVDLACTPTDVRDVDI
In short: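 1 nM enzyme, 1 mM ATP, 50 nM ULight-4E-BP1 (Thr37/46) peptide, 1% DMSO; 20 min compound preincubation, 60 min reaction, 23 °C. EDTA stop, 2 nM Eu-anti-phospho-4E-BP1 antibody 60 min. TR-FRET 665 nm (or 665/615 ratio); IC50 from 11-point half-log titration, top 10 μM.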

[1] = <25 nM, read-out: CDK2/CCNE IC50 <25 nM
[2] = >250 nM marked x, read-out: CDK1/CCNB IC50 >250 nM
[3] = >250 nM marked x, read-out: CDK4/CCND IC50 >250 nM
[4] = >250 nM marked x, read-out: CDK6/CCND IC50 >250 nM
[5] = x = IC50 25-250 nM, read-out: CDK2/CCNE IC50 (25-250 nM)
[6] = x = IC50 >250 nM, read-out: CDK1/CCNB IC50 (>250 nM column)
[7] = x = IC50 >250 nM, read-out: CDK4/CCND IC50 (>250 nM column)
[8] = x = IC50 >250 nM, read-out: CDK6/CCND IC50 (>250 nM column)
[9] = <25 nM, read-out: CDK2/CCNE IC50, <25 nM
[10] = 25-250 nM, read-out: CDK4/CCND IC50, 25-250 nM
[11] = 25-250 nM, 1 mM ATP, read-out: CDK6/CCND IC50, 25-250 nM
[12] = x = IC50 <25 nM, read-out: CDK2/CCNE IC50 (<25 nM)
[13] = x = IC50 25-250 nM, read-out: CDK4/CCND IC50 (25-250 nM)
[14] = >250 nM, read-out: CDK1/CCNB IC50 >250 nM
[15] = >250 nM, read-out: CDK4/CCND IC50, >250 nM
[16] = >250 nM, 1 mM ATP, read-out: CDK6/CCND IC50, >250 nM
[17] = 25-250 nM marked x, read-out: CDK2/CCNE IC50 25-250 nM
[18] = <25 nM, read-out: CDK4/CCND IC50 <25 nM
[19] = <25 nM, read-out: CDK6/CCND IC50 <25 nM

IC50 (CDK2/CCNE1; [1]): < 25 nM
IC50 (CDK1/CCNB1; [2]): > 250 nM
IC50 (CDK4/CCND3; [3]): > 250 nM
IC50 (CDK6/CCND1; [4]): > 250 nM
Structure (SMILES): COc1cc(S(C)(=N)=O)ccc1Nc1cc2c(C#Cc3ccc4c(c3)NC(=O)C43CC3)nccc2cn1 (single isomer, unassigned) [Ex 305, 6'-((7-((2-methoxy-4-(S-methylsulfonimidoyl)phenyl)amino)-2,6-naphthyridin-1-yl)ethynyl)spiro[cyclopropane-1,3'-indolin]-2'-one]

IC50 (CDK2/CCNE1; [1]): < 25 nM
IC50 (CDK1/CCNB1; 25-250 nM marked x, read-out: CDK1/CCNB IC50 25-250 nM): 25 to 250 nM
IC50 (CDK4/CCND3; 25-250 nM marked x, read-out: CDK4/CCND IC50 25-250 nM): 25 to 250 nM
IC50 (CDK6/CCND1; 25-250 nM marked x, read-out: CDK6/CCND IC50 25-250 nM): 25 to 250 nM
Structure (SMILES): CN(c1nccc2cnc(NC3CCN(S(C)(=O)=O)CC3)cc12)C1CCCCC1 [Ex 44, N1-cyclohexyl-N1-methyl-N7-(1-(methylsulfonyl)piperidin-4-yl)-2,6-naphthyridine-1,7-diamine]

IC50 (CDK2/CCNE1; [5]): 25 to 250 nM
IC50 (CDK1/CCNB1; [6]): > 250 nM
IC50 (CDK4/CCND3; [7]): > 250 nM
IC50 (CDK6/CCND1; [8]): > 250 nM
Structure (SMILES): CS(=O)(=O)c1ccc(Nc2cc3c(N4CC[C@H](c5ccc(C#N)cc5)[C@H](O)C4)nccc3cn2)cc1 (relative stereo) [Example 606, 4-(3-hydroxy-1-(7-((4-(methylsulfonyl)phenyl)amino)-2,6-naphthyridin-1-yl)piperidin-4-yl)benzonitrile]

IC50 (CDK2/CCNE1; [5]): 25 to 250 nM
IC50 (CDK1/CCNB1; [6]): > 250 nM
IC50 (CDK4/CCND3; [7]): > 250 nM
IC50 (CDK6/CCND1; [8]): > 250 nM
Structure (SMILES): Cc1c(-c2nccc3cnc(Nc4ccc(S(C)(=O)=O)cc4)cc23)ccc2c1cnn2CC(=O)NC1CCCCC1 [Example 642, N-cyclohexyl-2-(4-methyl-5-(7-((4-(methylsulfonyl)phenyl)amino)-2,6-naphthyridin-1-yl)-1H-indazol-1-yl)acetamide]

IC50 (CDK2/CCNE1; [9]): < 25 nM
IC50 (CDK1/CCNB1; 25-250 nM, read-out: CDK1/CCNB IC50, 25-250 nM): 25 to 250 nM
IC50 (CDK4/CCND3; [10]): 25 to 250 nM
IC50 (CDK6/CCND1; [11]): 25 to 250 nM
Structure (SMILES): Cc1c(-c2nccc3cnc(Nc4ccc(S(=O)(=O)Nc5ccc(N6CCOCC6)nn5)cc4)cc23)ccc2c1cnn2CC(C)(C)O [Ex 842, 4-((5-(1-(2-hydroxy-2-methylpropyl)-4-methyl-1H-indazol-5-yl)-2,6-naphthyridin-3-yl)amino)-N-(6-morpholinopyridazin-3-yl)benzenesulfonamide]

IC50 (CDK2/CCNE1; [1]): < 25 nM
IC50 (CDK1/CCNB1; [2]): > 250 nM
IC50 (CDK4/CCND3; [3]): > 250 nM
IC50 (CDK6/CCND1; [4]): > 250 nM
Structure (SMILES): CCC1(CC)C(=O)Nc2cc(C#Cc3nccc4cnc(Nc5ccc(S(=N)(=O)C6COC6)cc5C)cc34)ccc21 (single isomer, unassigned) [Ex 316, 3,3-diethyl-6-((7-((2-methyl-4-(oxetane-3-sulfonimidoyl)phenyl)amino)-2,6-naphthyridin-1-yl)ethynyl)indolin-2-one]

IC50 (CDK2/CCNE1; [12]): < 25 nM
IC50 (CDK1/CCNB1; [6]): > 250 nM
IC50 (CDK4/CCND3; [13]): 25 to 250 nM
IC50 (CDK6/CCND1; x = IC50 25-250 nM, read-out: CDK6/CCND IC50 (25-250 nM)): 25 to 250 nM
Structure (SMILES): Cc1c(-c2nccc3cnc(Nc4ccc(S(C)(=O)=O)cc4)cc23)ccc2c1cnn2CC(C)O (single isomer, unassigned) [Example 614, 1-(4-methyl-5-(7-((4-(methylsulfonyl)phenyl)amino)-2,6-naphthyridin-1-yl)-1H-indazol-1-yl)propan-2-ol]

IC50 (CDK2/CCNE1; [9]): < 25 nM
IC50 (CDK1/CCNB1; [14]): > 250 nM
IC50 (CDK4/CCND3; [15]): > 250 nM
IC50 (CDK6/CCND1; [16]): > 250 nM
Structure (SMILES): CCNS(=O)(=O)c1ccc(Nc2cc3c(-c4ccc5c(cnn5CC(O)(C(F)(F)F)C(F)(F)F)c4C)nccc3cn2)cc1 [Ex 695, N-ethyl-4-((5-(4-methyl-1-(3,3,3-trifluoro-2-hydroxy-2-(trifluoromethyl)propyl)-1H-indazol-5-yl)-2,6-naphthyridin-3-yl)amino)benzenesulfonamide]

IC50 (CDK2/CCNE1; [17]): 25 to 250 nM
IC50 (CDK1/CCNB1; [2]): > 250 nM
IC50 (CDK4/CCND3; [18]): < 25 nM
IC50 (CDK6/CCND1; [19]): < 25 nM
Structure (SMILES): CS(=O)(=O)N1CCC(Nc2cc3c(N4CCNC(=O)C4)nccc3cn2)CC1 [Ex 48, 4-(7-((1-(methylsulfonyl)piperidin-4-yl)amino)-2,6-naphthyridin-1-yl)piperazin-2-one]

IC50 (CDK2/CCNE1; [5]): 25 to 250 nM
IC50 (CDK1/CCNB1; [6]): > 250 nM
IC50 (CDK4/CCND3; [7]): > 250 nM
IC50 (CDK6/CCND1; [8]): > 250 nM
Structure (SMILES): CN=S(C)(=O)c1ccc(Nc2cc3c(-c4ccc5c(cnn5CC(O)(C(F)(F)F)C(F)(F)F)c4C)nccc3cn2)cc1 (racemic) [Ex 470, methyl(4-((5-(4-methyl-1-(3,3,3-trifluoro-2-hydroxy-2-(trifluoromethyl)propyl)-1H-indazol-5-yl)-2,6-naphthyridin-3-yl)amino)phenyl)(methylimino)-l6-sulfanone]

IC50 (CDK2/CCNE1; [9]): < 25 nM
IC50 (CDK1/CCNB1; [14]): > 250 nM
IC50 (CDK4/CCND3; [10]): 25 to 250 nM
IC50 (CDK6/CCND1; [11]): 25 to 250 nM
Structure (SMILES): Cc1c(-c2nccc3cnc(Nc4ccc(S(=O)(=O)N[C@H](C)CCO)cc4)cc23)ccc2c1cnn2CC(C)(C)O [Ex 747, (R)-4-((5-(1-(2-hydroxy-2-methylpropyl)-4-methyl-1H-indazol-5-yl)-2,6-naphthyridin-3-yl)amino)-N-(4-hydroxybutan-2-yl)benzenesulfonamide]

IC50 (CDK2/CCNE1; [1]): < 25 nM
IC50 (CDK1/CCNB1; [2]): > 250 nM
IC50 (CDK4/CCND3; [3]): > 250 nM
IC50 (CDK6/CCND1; [4]): > 250 nM
Structure (SMILES): COc1cc(S(=N)(=O)C(C)C)ccc1Nc1cc2c(C#Cc3ccc4c(c3)NC(=O)C43CC3)nccc2cn1 (single isomer, unassigned) [Ex 334, 6'-((7-((2-methoxy-4-(propan-2-ylsulfonimidoyl)phenyl)amino)-2,6-naphthyridin-1-yl)ethynyl)spiro[cyclopropane-1,3'-indolin]-2'-one]

IC50 (CDK2/CCNE1; [12]): < 25 nM
IC50 (CDK1/CCNB1; x = IC50 25-250 nM, read-out: CDK1/CCNB IC50 (25-250 nM)): 25 to 250 nM
IC50 (CDK4/CCND3; [13]): 25 to 250 nM
IC50 (CDK6/CCND1; [8]): > 250 nM
Structure (SMILES): CS(=N)(=O)c1ccc(Nc2cc3c(C#Cc4ccc5c(c4)NC(=O)C54CCC4)nccc3cn2)cc1 (single isomer, unassigned) [Ex 368, 6'-((7-((4-(S-methylsulfonimidoyl)phenyl)amino)-2,6-naphthyridin-1-yl)ethynyl)spiro[cyclobutane-1,3'-indolin]-2'-one]

IC50 (CDK2/CCNE1; [5]): 25 to 250 nM
IC50 (CDK1/CCNB1; [6]): > 250 nM
IC50 (CDK4/CCND3; [7]): > 250 nM
IC50 (CDK6/CCND1; [8]): > 250 nM
Structure (SMILES): Cc1ncccc1C#Cc1nccc2cnc(Nc3ccc(S(C)(=O)=O)cc3)cc12 [Ex 565, 5-((2-methylpyridin-3-yl)ethynyl)-N-(4-(methylsulfonyl)phenyl)-2,6-naphthyridin-3-amine]

IC50 (CDK2/CCNE1; [1]): < 25 nM
IC50 (CDK1/CCNB1; <25 nM, read-out: CDK1/CCNB IC50 <25 nM): < 25 nM
IC50 (CDK4/CCND3; [18]): < 25 nM
IC50 (CDK6/CCND1; [19]): < 25 nM
Structure (SMILES): CS(=O)(=O)N1CCC(Nc2cc3c(C4CCCC4)nccc3cn2)CC1 [Example 22, 5-cyclopentyl-N-(1-(methylsulfonyl)piperidin-4-yl)-2,6-naphthyridin-3-amine]

IC50 (CDK2/CCNE1; [17]): 25 to 250 nM
IC50 (CDK1/CCNB1; [2]): > 250 nM
IC50 (CDK4/CCND3; [3]): > 250 nM
IC50 (CDK6/CCND1; [4]): > 250 nM
Structure (SMILES): C#Cc1nccc2cnc(Nc3ccc(S(C)(=O)=O)cc3)cc12 [Ex 124, 5-ethynyl-N-(4-(methylsulfonyl)phenyl)-2,6-naphthyridin-3-amine]

IC50 (CDK2/CCNE1; [9]): < 25 nM
IC50 (CDK1/CCNB1; [14]): > 250 nM
IC50 (CDK4/CCND3; [15]): > 250 nM
IC50 (CDK6/CCND1; [16]): > 250 nM
Structure (SMILES): Cc1c(-c2nccc3cnc(Nc4ccc(S(=O)(=O)Nc5nccc(N6CCN(CCO)CC6)n5)cc4)cc23)ccc2c1cnn2CC(O)(C(F)(F)F)C(F)(F)F [Ex 755, N-(4-(4-(2-hydroxyethyl)piperazin-1-yl)pyrimidin-2-yl)-4-((5-(4-methyl-1-(3,3,3-trifluoro-2-hydroxy-2-(trifluoromethyl)propyl)-1H-indazol-5-yl)-2,6-naphthyridin-3-yl)amino)benzenesulfonamide]

Reference: patent US20260325533A1, “CDK INHIBITOR COMPOUNDS” (ALEKSIA THERAPEUTICS, INC., priority 2023, published 2026)
